Test results published in PubChem BioAssay AID651990 (The Scripps Research Institute Molecular Screening Center, 2013).
Calls of active or inactive are those of the source. No rule for the calls is given here.

What was measured:
[1] = biological target: Acyl-protein thioesterase 1 (Homo sapiens) (UniProt O75608); test: LYPLA1 and LYPLA2 inhibitor potency, dose response, gel-based ABPP, fluorescence, HEK293T proteome (AID 651990); settings: HEK293T soluble proteome, gel-based ABPP FP-PEG-Rh fluorescence; LYPLA1
[2] = biological target: Acyl-protein thioesterase 2 (Homo sapiens) (UniProt O95372); test: as above; settings: HEK293T soluble proteome, gel-based ABPP FP-PEG-Rh fluorescence; LYPLA2
Sequence of Acyl-protein thioesterase 2 (Homo sapiens) (O95372 whole entry, looked up): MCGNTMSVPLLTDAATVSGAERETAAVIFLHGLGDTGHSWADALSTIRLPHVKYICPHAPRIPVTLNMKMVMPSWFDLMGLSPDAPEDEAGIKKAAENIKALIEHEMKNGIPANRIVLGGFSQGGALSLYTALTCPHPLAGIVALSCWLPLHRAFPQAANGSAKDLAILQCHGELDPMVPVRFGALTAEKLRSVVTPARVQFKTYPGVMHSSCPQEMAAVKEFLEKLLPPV

Sequence of Acyl-protein thioesterase 1 (Homo sapiens) (O75608 whole entry, looked up): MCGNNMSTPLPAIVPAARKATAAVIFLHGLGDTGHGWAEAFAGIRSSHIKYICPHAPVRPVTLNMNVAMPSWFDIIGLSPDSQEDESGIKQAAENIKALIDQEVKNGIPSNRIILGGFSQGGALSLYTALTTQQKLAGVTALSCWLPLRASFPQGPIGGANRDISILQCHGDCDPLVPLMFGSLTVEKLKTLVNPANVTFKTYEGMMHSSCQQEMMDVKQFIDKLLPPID

For `COc1ccc(N2CCN(C(=O)c3cc4c(s3)-c3ccccc3S(=O)(=O)C4)CC2)cc1`, the IC50 [1] was > 3000 nM (inactive) and the IC50 [2] was 144 nM.

In the case of `O=C(CN1CCN(C(=O)c2ccco2)CC1)Nc1cc(C(F)(F)F)ccc1Cl`, the IC50 [2] is reported as > 3000 nM (inactive).
